For assay [1], the target named is T1, Polyunsaturated fatty acid lipoxygenase ALOX12 (Homo sapiens) (UniProt P18054).
T1 sequence (whole entry): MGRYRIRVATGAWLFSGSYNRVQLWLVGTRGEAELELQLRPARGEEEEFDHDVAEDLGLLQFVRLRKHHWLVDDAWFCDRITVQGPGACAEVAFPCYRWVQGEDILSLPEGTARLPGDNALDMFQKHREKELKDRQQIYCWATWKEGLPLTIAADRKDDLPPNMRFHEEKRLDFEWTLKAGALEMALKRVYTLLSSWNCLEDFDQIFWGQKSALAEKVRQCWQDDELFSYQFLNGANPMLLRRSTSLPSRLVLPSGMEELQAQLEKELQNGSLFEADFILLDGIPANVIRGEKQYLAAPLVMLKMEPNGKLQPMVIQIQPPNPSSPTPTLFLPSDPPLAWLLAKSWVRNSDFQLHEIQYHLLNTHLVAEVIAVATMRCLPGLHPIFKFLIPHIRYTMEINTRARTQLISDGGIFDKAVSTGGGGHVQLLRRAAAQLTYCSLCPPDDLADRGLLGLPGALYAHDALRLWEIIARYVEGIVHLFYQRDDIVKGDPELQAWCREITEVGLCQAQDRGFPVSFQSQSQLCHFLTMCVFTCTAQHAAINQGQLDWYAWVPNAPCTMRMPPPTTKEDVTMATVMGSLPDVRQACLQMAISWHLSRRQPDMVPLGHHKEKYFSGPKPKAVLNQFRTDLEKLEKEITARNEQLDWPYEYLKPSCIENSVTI
Kind of assay: Inhibition of 12-LOX (unknown origin) at 500 uM preincubated for 1 mins followed by arachidonic acid substrate addition by spectrophotometric method.

The species named for assay [2] is Homo sapiens. Kind of assay: Activation of recombinant His-tagged human cytosolic GPX4 U46C mutant expressed in Escherichia coli M15 assessed as increase in oxidized glutathione-mediated oxidation of NADPH to NADP+ at 0.4 to 250 uM using tert-butyl hydroperoxide as substrate preincubated for 5 mins followed by substrate addition measured for 6 mins by glutathione reductase enzyme coupled fluorescence assay relative to control.

Assay [3] in a line: Zinc chelating activity in presence of ZnSO4 after 10 mins by crystal violet staining based assay.
The nature of assay [4]: Binding affinity to recombinant His-tagged human cytosolic GPX4 U46C mutant expressed in Escherichia coli M15 by SPR analysis. A general note: In SPR one partner is held on a chip, and binding of the other changes the refractive index at the surface.
The target of assay [5] is T2, Leukotriene A-4 hydrolase (Homo sapiens) (UniProt P09960).
T2 sequence (whole entry): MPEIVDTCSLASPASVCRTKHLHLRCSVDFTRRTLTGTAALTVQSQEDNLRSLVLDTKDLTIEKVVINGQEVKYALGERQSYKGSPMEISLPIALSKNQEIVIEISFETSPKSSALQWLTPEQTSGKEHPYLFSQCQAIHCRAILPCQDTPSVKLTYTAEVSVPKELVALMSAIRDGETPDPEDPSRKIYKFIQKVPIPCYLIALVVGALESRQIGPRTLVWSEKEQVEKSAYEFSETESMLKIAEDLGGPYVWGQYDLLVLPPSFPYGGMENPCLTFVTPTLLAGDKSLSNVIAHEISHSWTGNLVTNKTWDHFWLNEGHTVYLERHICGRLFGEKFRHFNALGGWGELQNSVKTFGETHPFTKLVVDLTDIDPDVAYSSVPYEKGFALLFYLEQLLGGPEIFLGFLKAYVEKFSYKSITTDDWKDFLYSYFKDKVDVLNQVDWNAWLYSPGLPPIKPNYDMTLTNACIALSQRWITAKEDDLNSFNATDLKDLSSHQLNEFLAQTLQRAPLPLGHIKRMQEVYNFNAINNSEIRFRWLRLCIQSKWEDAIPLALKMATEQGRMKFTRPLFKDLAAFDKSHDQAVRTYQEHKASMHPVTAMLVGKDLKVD
Put plainly: Inhibition of LTA4H (unknown origin) at 500 uM preincubated for 15 mins followed by LTA4 substrate addition and measured after 10 mins by ELISA relative to control.

Assay [6] addresses Phospholipid hydroperoxide glutathione peroxidase GPX4 (Mus musculus) (UniProt O70325). Put plainly: Activation of GPX4 in MEF assessed as increase in […] protection against CHOOH-induced cell death at 200 uM. It is filed as cell-based.
Assay [7] is filed under the species Homo sapiens. Kind of assay: Activation of recombinant human GPX4 D21A/U46C double mutant expressed in Escherichia coli M15 assessed as increase in oxidized glutathione-mediated oxidation of NADPH to NADP+ using tert-butyl hydroperoxide as substrate preincubated for 5 mins followed by substrate addition measured for 6 mins by glutathione reductase enzyme coupled fluorescence assay relative to GPX4 U46C mutant control.

The target of assay [8] is T3, Prostaglandin E synthase (Homo sapiens) (UniProt O14684).
T3 sequence (whole entry): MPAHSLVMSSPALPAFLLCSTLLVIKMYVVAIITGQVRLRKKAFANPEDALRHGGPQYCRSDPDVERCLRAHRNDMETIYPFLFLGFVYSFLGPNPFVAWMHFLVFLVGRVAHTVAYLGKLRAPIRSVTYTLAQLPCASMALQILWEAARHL
Put plainly: Inhibition of mPGES1 (unknown origin) at 500 uM preincubated for 15 mins followed by PGH2 substrate addition and measured after 1 min by EIA relative to control.

Assay [9] addresses Prostaglandin G/H synthase 1 (Homo sapiens) (UniProt P23219). Put plainly: Inhibition of COX1 (unknown origin) at 500 uM preincubated for 15 mins followed by arachidonic acid substrate addition in presence of TMPD by spectrophotometric method.
Assay [10] has as its target T4, Phospholipid hydroperoxide glutathione peroxidase GPX4 (Homo sapiens) (UniProt P36969).
T4 sequence (whole entry): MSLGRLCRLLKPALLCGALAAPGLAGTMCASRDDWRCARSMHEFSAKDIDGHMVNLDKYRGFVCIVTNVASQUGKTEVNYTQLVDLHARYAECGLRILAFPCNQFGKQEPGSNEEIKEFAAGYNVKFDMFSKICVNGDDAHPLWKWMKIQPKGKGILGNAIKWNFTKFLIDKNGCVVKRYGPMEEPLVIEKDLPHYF
Kind of assay: Activation of GPX4 in A23187-stimulated human PMN leukocytes assessed as increase in 5-HETE/LTB4 ratio preincubated for 15 mins followed by A23187 addition and measured after 120 mins by LC-MS analysis.

The source made the active and inactive calls. The rule behind the calls is not given here.

Phospholipid hydroperoxide glutathione peroxidase GPX4 (Mus musculus), sequence (O70325 whole entry): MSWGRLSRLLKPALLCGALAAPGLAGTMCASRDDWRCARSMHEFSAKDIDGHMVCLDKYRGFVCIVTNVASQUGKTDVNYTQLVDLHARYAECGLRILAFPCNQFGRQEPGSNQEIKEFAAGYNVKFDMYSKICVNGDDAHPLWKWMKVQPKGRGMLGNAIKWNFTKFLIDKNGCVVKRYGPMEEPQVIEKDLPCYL
Prostaglandin G/H synthase 1 (Homo sapiens), sequence (P23219 whole entry): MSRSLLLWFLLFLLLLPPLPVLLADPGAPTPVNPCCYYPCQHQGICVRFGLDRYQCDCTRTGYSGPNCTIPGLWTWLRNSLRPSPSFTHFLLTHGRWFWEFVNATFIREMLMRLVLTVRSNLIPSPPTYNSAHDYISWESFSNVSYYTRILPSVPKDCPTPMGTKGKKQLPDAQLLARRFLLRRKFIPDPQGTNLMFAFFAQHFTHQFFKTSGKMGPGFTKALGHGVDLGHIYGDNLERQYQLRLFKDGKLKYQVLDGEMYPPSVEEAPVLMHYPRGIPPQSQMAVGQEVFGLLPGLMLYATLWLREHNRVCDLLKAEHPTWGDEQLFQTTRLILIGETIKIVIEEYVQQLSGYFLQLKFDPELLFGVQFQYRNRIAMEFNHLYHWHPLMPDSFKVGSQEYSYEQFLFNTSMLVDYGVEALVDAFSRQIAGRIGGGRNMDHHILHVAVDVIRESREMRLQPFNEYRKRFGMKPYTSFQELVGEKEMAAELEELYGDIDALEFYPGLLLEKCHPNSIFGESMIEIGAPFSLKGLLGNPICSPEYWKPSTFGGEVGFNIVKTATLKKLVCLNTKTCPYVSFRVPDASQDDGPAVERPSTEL

What is called inhibition is the change of the read-out against control, counted positive when it falls. One may read the Emax as the greatest response seen or fitted, relative to the assay's reference. By Kd is commonly meant the free concentration of one partner at which half of the binding sites on the other are occupied at equilibrium, for simple one-to-one binding. Turning to `NS(=O)(=O)c1ccc(NC(S)=NCc2ccc(Cl)cc2)cc1`, the inhibition result in assay [1] and in [9] was “inactive” each time. In addition, in [2], the Emax was determined as 263%. In addition, in assay [3], the result was inactive. The Kd in assay [4] came out at 63 µM. Moreover, the values for the inhibition in assay [5] and in assay [8] were 17% and 23%, respectively. In assay [6], the result was Active. Also, the EC150 in assay [7] is 618 µM. For the same compound, in [10], the Activity entry is “Dose-dependent effect”.

These data come from ChEMBL document CHEMBL4308834, “Novel Allosteric Activators for Ferroptosis Regulator Glutathione Peroxidase 4” (J Med Chem, 2018).
